The values below are quoted from earlier work in patent US20230149481A1, “COMBINATION THERAPY FOR INFLAMMATORY BOWEL DISEASE” (Servatus Ltd, priority 2020, published 2023).

This data set relates to DSS-induced colitis. The note with it: previous tests in the same DSS-induced colitis model, compared with the Group 5 treatment of Example 1.

For the compound `O=C(O)c1cc(/N=N/c2ccc(S(=O)(=O)Nc3ccccn3)cc2)ccc1O` [sulfasalazine], the in-life disease score result is given as “None of these drugs statistically improved the in-life disease score to the extent observed”.
For `C[C@]12C=CC(=O)C=C1CC[C@@H]1[C@@H]2[C@@H](O)C[C@@]2(C)[C@H]1CC[C@]2(O)C(=O)CO` [prednisolone], the in-life disease score result is listed as “None of these drugs statistically improved the in-life disease score to the extent observed”.
